From patent publication US10336732B2, “1-heterocyclyl isochromanyl compounds and analogs for treating CNS disorders” (Sunovion Pharmaceuticals Inc., priority 2015, dated 2019) come the findings set out here.

For the test, the system named is mice. Briefly: Neuropharmacological assay (SmartCube), behavioral signature of compound-treated mice. It is filed as in vivo. The conditions noted are these: i.p. 15 min before behavioral test, most efficacious dose(s) of 3 doses. The method in brief: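 Mice received compound i.p. in NMP/PEG/propylene glycol vehicle at 3 doses, 15 min before testing. Video-captured behavior was algorithmically compared with a reference-drug signature database.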
With `Fc1cccc2c1[C@@H]([C@@H]1CCN1)OCC2` [Compound I-84, (S)-2-((S)-8-fluoroisochroman-1-yl)azetidine], the “AD: ADHD (probability that behavioral signature matches class)” value (shortened to “AD: ADHD”) is recorded as “+ (LOQ ≤ + <5%)”, the “AG: analgesic (probability that behavioral signature matches class)” value (“AG: analgesic” for short) was “+ (LOQ ≤ + <5%)”, the “AX: anxiolytic (probability that behavioral signature matches class)” value (“AX: anxiolytic” for short) is “++ (5% ≤ ++ <25%)” and the “CE: cognitive enhancer (probability that behavioral signature matches class)” value (from here on “CE: cognitive enhancer”) was “+ (LOQ ≤ + <5%)”. In addition, the “DP: anti-depressant (probability that behavioral signature matches class)” value (from here on “DP: anti-depressant”) is “++ (5% ≤ ++ <25%)”, the “HA: hallucinogen (probability that behavioral signature matches class)” value (shortened to “HA: hallucinogen”) was “+ (LOQ ≤ + <5%)”, the “MS: mood stabilizer (probability that behavioral signature matches class)” value (“MS: mood stabilizer” for short) is recorded as “++ (5% ≤ ++ <25%)” and the “PS: anti-psychotic (probability that behavioral signature matches class)” value (shortened to “PS: anti-psychotic”) was “++++ (50% ≤ ++++)”. For the same molecule, the “SD: sedative hypnotic (probability that behavioral signature matches class)” value (shortened to “SD: sedative hypnotic”) was “++ (5% ≤ ++ <25%)”, the “UN: uncharacterized CNS activity (probability that behavioral signature matches class)” value (from here on “UN: uncharacterized CNS activity”) is “+ (LOQ ≤ + <5%)” and the “XG: anxiogenic (probability that behavioral signature matches class)” value (“XG: anxiogenic” below) is “+ (LOQ ≤ + <5%)”.

In the case of `Fc1ccc2c(c1)[C@@H]([C@@H]1CCN1)OCC2` [Compound I-85, (S)-2-((S)-7-fluoroisochroman-1-yl)azetidine], the “AD: ADHD” value is recorded as “+ (LOQ ≤ + <5%)”, the “AG: analgesic” value is listed as “+ (LOQ ≤ + <5%)”, the “AX: anxiolytic” value was “++ (5% ≤ ++ <25%)” and the “CE: cognitive enhancer” value is listed as “++ (5% ≤ ++ <25%)”. The “DP: anti-depressant” value is given as “++ (5% ≤ ++ <25%)”, the “HA: hallucinogen” value is on record as “+ (LOQ ≤ + <5%)”, the “MS: mood stabilizer” value is on record as “+ (LOQ ≤ + <5%)” and the “PS: anti-psychotic” value is reported as “+++ (25% ≤ +++ <50%)”. The “SD: sedative hypnotic” value is given as “++ (5% ≤ ++ <25%)”, the “UN: uncharacterized CNS activity” value is on record as “++ (5% ≤ ++ <25%)” and the “XG: anxiogenic” value is reported as “+ (LOQ ≤ + <5%)”.

In the case of `Fc1ccc2c(c1)[C@H]([C@@H]1CCN1)OCC2` [Compound I-86, (S)-2-((R)-7-fluoroisochroman-1-yl)azetidine], the “AD: ADHD” value is recorded as “+ (LOQ ≤ + <5%)”, the “AG: analgesic” value is “+++ (25% ≤ +++ <50%)”, the “AX: anxiolytic” value is recorded as “+++ (25% ≤ +++ <50%)” and the “CE: cognitive enhancer” value was “++ (5% ≤ ++ <25%)”. Further, the “DP: anti-depressant” value was “++ (5% ≤ ++ <25%)”, the “HA: hallucinogen” value is listed as “+ (LOQ ≤ + <5%)”, the “MS: mood stabilizer” value was “+ (LOQ ≤ + <5%)” and the “PS: anti-psychotic” value is listed as “+++ (25% ≤ +++ <50%)”. Moreover, the “SD: sedative hypnotic” value was “++ (5% ≤ ++ <25%)”, the “UN: uncharacterized CNS activity” value is “++ (5% ≤ ++ <25%)” and the “XG: anxiogenic” value is “+ (LOQ ≤ + <5%)”.

`Fc1ccc2c(c1)[C@H]([C@H]1CCN1)OCC2` [Compound I-87, (R)-2-((R)-7-fluoroisochroman-1-yl)azetidine]: the “AD: ADHD” value is “+ (LOQ ≤ + <5%)”, the “AG: analgesic” value is on record as “++ (5% ≤ ++ <25%)”, the “AX: anxiolytic” value is listed as “++ (5% ≤ ++ <25%)” and the “CE: cognitive enhancer” value is recorded as “+ (LOQ ≤ + <5%)”. For the same molecule, the “DP: anti-depressant” value was “++ (5% ≤ ++ <25%)”, the “HA: hallucinogen” value is “+ (LOQ ≤ + <5%)”, the “MS: mood stabilizer” value was “+ (LOQ ≤ + <5%)” and the “PS: anti-psychotic” value was “+++ (25% ≤ +++ <50%)”. Also, the “SD: sedative hypnotic” value was “+ (LOQ ≤ + <5%)”, the “UN: uncharacterized CNS activity” value is recorded as “++ (5% ≤ ++ <25%)” and the “XG: anxiogenic” value is reported as “+ (LOQ ≤ + <5%)”.

`Fc1ccc2c(c1)[C@@H]([C@H]1CCN1)OCC2` [Compound I-88, (R)-2-((S)-7-fluoroisochroman-1-yl)azetidine]: the “AD: ADHD” value is “+ (LOQ ≤ + <5%)”, the “AG: analgesic” value is listed as “++ (5% ≤ ++ <25%)”, the “AX: anxiolytic” value is “+++ (25% ≤ +++ <50%)” and the “CE: cognitive enhancer” value is listed as “++ (5% ≤ ++ <25%)”. Moreover, the “DP: anti-depressant” value is listed as “++ (5% ≤ ++ <25%)”, the “HA: hallucinogen” value is “+ (LOQ ≤ + <5%)”, the “MS: mood stabilizer” value is reported as “+ (LOQ ≤ + <5%)” and the “PS: anti-psychotic” value is reported as “++ (5% ≤ ++ <25%)”. Besides, the “SD: sedative hypnotic” value is recorded as “+ (LOQ ≤ + <5%)”, the “UN: uncharacterized CNS activity” value is “+++ (25% ≤ +++ <50%)” and the “XG: anxiogenic” value is given as “+ (LOQ ≤ + <5%)”.

In the case of `Fc1ccc2c(c1)CCO[C@@H]2[C@@H]1CCN1` [Compound I-89, (S)-2-((S)-6-fluoroisochroman-1-yl)azetidine], the “AD: ADHD” value is reported as “++ (5% ≤ ++ <25%)”, the “AG: analgesic” value was “++ (5% ≤ ++ <25%)”, the “AX: anxiolytic” value is “++ (5% ≤ ++ <25%)” and the “CE: cognitive enhancer” value is “++ (5% ≤ ++ <25%)”. Besides, the “DP: anti-depressant” value is given as “+++ (25% ≤ +++ <50%)”, the “HA: hallucinogen” value is recorded as “+ (LOQ ≤ + <5%)”, the “MS: mood stabilizer” value is recorded as “++ (5% ≤ ++ <25%)” and the “PS: anti-psychotic” value is listed as “+++ (25% ≤ +++ <50%)”. The “SD: sedative hypnotic” value is “+ (LOQ ≤ + <5%)”, the “UN: uncharacterized CNS activity” value is listed as “+ (LOQ ≤ + <5%)” and the “XG: anxiogenic” value is recorded as “+ (LOQ ≤ + <5%)”.

For `Fc1ccc2c(c1)CCO[C@@H]2[C@H]1CCN1` [Compound I-91, (R)-2-((S)-6-fluoroisochroman-1-yl)azetidine], the “AD: ADHD” value is on record as “+ (LOQ ≤ + <5%)”, the “AG: analgesic” value was “++ (5% ≤ ++ <25%)”, the “AX: anxiolytic” value was “++ (5% ≤ ++ <25%)” and the “CE: cognitive enhancer” value was “++ (5% ≤ ++ <25%)”. For the same molecule, the “DP: anti-depressant” value is listed as “++ (5% ≤ ++ <25%)”, the “HA: hallucinogen” value is on record as “+ (LOQ ≤ + <5%)”, the “MS: mood stabilizer” value was “+ (LOQ ≤ + <5%)” and the “PS: anti-psychotic” value is “+++ (25% ≤ +++ <50%)”. Also, the “SD: sedative hypnotic” value is on record as “++ (5% ≤ ++ <25%)”, the “UN: uncharacterized CNS activity” value is “++ (5% ≤ ++ <25%)” and the “XG: anxiogenic” value is reported as “+ (LOQ ≤ + <5%)”.

As to `Fc1ccc2c(c1)CCO[C@H]2[C@H]1CCN1` [Compound I-92, (R)-2-((R)-6-fluoroisochroman-1-yl)azetidine], the “AD: ADHD” value is reported as “+ (LOQ ≤ + <5%)”, the “AG: analgesic” value is “++ (5% ≤ ++ <25%)”, the “AX: anxiolytic” value is recorded as “++ (5% ≤ ++ <25%)” and the “CE: cognitive enhancer” value is listed as “+++ (25% ≤ +++ <50%)”. Moreover, the “DP: anti-depressant” value is given as “++ (5% ≤ ++ <25%)”, the “HA: hallucinogen” value is reported as “+ (LOQ ≤ + <5%)”, the “MS: mood stabilizer” value is “++ (5% ≤ ++ <25%)” and the “PS: anti-psychotic” value is “+++ (25% ≤ +++ <50%)”. Moreover, the “SD: sedative hypnotic” value is “+ (LOQ ≤ + <5%)”, the “UN: uncharacterized CNS activity” value is reported as “+ (LOQ ≤ + <5%)” and the “XG: anxiogenic” value is given as “+ (LOQ ≤ + <5%)”.

Consider `Fc1cccc2c1CCO[C@H]2[C@@H]1CCN1` [Compound I-93, (S)-2-((R)-5-fluoroisochroman-1-yl)azetidine], for which the “AD: ADHD” value was “++ (5% ≤ ++ <25%)”, the “AG: analgesic” value was “+++ (25% ≤ +++ <50%)”, the “AX: anxiolytic” value was “++ (5% ≤ ++ <25%)” and the “CE: cognitive enhancer” value is reported as “++ (5% ≤ ++ <25%)”. Besides, the “DP: anti-depressant” value is listed as “+++ (25% ≤ +++ <50%)”, the “HA: hallucinogen” value is reported as “+ (LOQ ≤ + <5%)”, the “MS: mood stabilizer” value was “+ (LOQ ≤ + <5%)” and the “PS: anti-psychotic” value was “++ (5% ≤ ++ <25%)”. The “SD: sedative hypnotic” value is reported as “++ (5% ≤ ++ <25%)”, the “UN: uncharacterized CNS activity” value is given as “++ (5% ≤ ++ <25%)” and the “XG: anxiogenic” value is on record as “+ (LOQ ≤ + <5%)”.

With `Fc1cccc2c1CCO[C@H]2[C@H]1CCN1` [Compound I-95, (R)-2-((R)-5-fluoroisochroman-1-yl)azetidine], the “AD: ADHD” value was “+ (LOQ ≤ + <5%)”, the “AG: analgesic” value is “+++ (25% ≤ +++ <50%)”, the “AX: anxiolytic” value was “++ (5% ≤ ++ <25%)” and the “CE: cognitive enhancer” value was “++ (5% ≤ ++ <25%)”. Besides, the “DP: anti-depressant” value was “++ (5% ≤ ++ <25%)”, the “HA: hallucinogen” value is “+ (LOQ ≤ + <5%)”, the “MS: mood stabilizer” value is listed as “+ (LOQ ≤ + <5%)” and the “PS: anti-psychotic” value was “++ (5% ≤ ++ <25%)”. Moreover, the “SD: sedative hypnotic” value is on record as “+ (LOQ ≤ + <5%)”, the “UN: uncharacterized CNS activity” value is “+ (LOQ ≤ + <5%)” and the “XG: anxiogenic” value is given as “+ (LOQ ≤ + <5%)”.
